Test results: the NIST ThermoML archive (doi:10.1021/je060490w)

Legend:
[1] = xn = mol fraction of the nth substance listed; settings: Pendant drop shape
[2] = for surface tension liquid-gas: Pendant drop shape; for mass density: 101.33 kPa, Liquid

COC(C)(C)OC [3,3-dimethyl-2,4-dioxapentane] + Cc1cc(C)cc(C)c1
[1]
Settings	surface tension liquid-gas [mN/m]
298.15 K, x1 = 0.05	27.6
298.15 K, x1 = 0.1002	27.14
298.15 K, x1 = 0.1494	26.72
298.15 K, x1 = 0.2001	26.28
298.15 K, x1 = 0.252	25.88
298.15 K, x1 = 0.3001	25.47
298.15 K, x1 = 0.3496	25.1
298.15 K, x1 = 0.3998	24.7
298.15 K, x1 = 0.4525	24.33
298.15 K, x1 = 0.4998	23.98
298.15 K, x1 = 0.5497	23.62
298.15 K, x1 = 0.5996	23.26
298.15 K, x1 = 0.6506	22.93
298.15 K, x1 = 0.7002	22.64
298.15 K, x1 = 0.7503	22.37
298.15 K, x1 = 0.7993	22.11
298.15 K, x1 = 0.8511	21.89
298.15 K, x1 = 0.8986	21.7
298.15 K, x1 = 0.9494	21.57
298.15 K, x1 = 1	21.46
308.15 K, x1 = 0.0562	26.65
308.15 K, x1 = 0.0995	26.21
308.15 K, x1 = 0.1481	25.77
308.15 K, x1 = 0.2023	25.29
308.15 K, x1 = 0.2502	24.87
308.15 K, x1 = 0.3002	24.49
308.15 K, x1 = 0.3497	24.06
308.15 K, x1 = 0.3982	23.71
308.15 K, x1 = 0.4499	23.31
308.15 K, x1 = 0.4964	22.95
308.15 K, x1 = 0.5493	22.54
308.15 K, x1 = 0.6001	22.17
308.15 K, x1 = 0.6502	21.85
308.15 K, x1 = 0.7006	21.52
308.15 K, x1 = 0.7454	21.27
308.15 K, x1 = 0.7999	20.99
308.15 K, x1 = 0.8492	20.74
308.15 K, x1 = 0.8998	20.57
308.15 K, x1 = 0.9492	20.48
308.15 K, x1 = 1	20.43
313.15 K, x1 = 0.0511	26.21
313.15 K, x1 = 0.1023	25.71
313.15 K, x1 = 0.1503	25.26
313.15 K, x1 = 0.2014	24.79
313.15 K, x1 = 0.2506	24.39
313.15 K, x1 = 0.3013	23.95
313.15 K, x1 = 0.3498	23.56
313.15 K, x1 = 0.396	23.19
313.15 K, x1 = 0.4486	22.77
313.15 K, x1 = 0.5014	22.36
313.15 K, x1 = 0.5508	21.99
313.15 K, x1 = 0.5931	21.68
313.15 K, x1 = 0.6488	21.31
313.15 K, x1 = 0.6988	20.99
313.15 K, x1 = 0.7499	20.66
313.15 K, x1 = 0.7994	20.4
313.15 K, x1 = 0.8388	20.24
313.15 K, x1 = 0.8976	20
313.15 K, x1 = 0.944	19.95
313.15 K, x1 = 1	19.91

CCOC(C)OCC [1,1-diethoxyethane] + Cc1ccc(C)c(C)c1
[1]
Settings	surface tension liquid-gas [mN/m]
298.15 K, x1 = 0.05	28.51
298.15 K, x1 = 0.1	27.76
298.15 K, x1 = 0.151	26.97
298.15 K, x1 = 0.2005	26.29
298.15 K, x1 = 0.2511	25.71
298.15 K, x1 = 0.3005	25.14
298.15 K, x1 = 0.3526	24.6
298.15 K, x1 = 0.401	24.16
298.15 K, x1 = 0.4538	23.73
298.15 K, x1 = 0.5034	23.35
298.15 K, x1 = 0.5513	23.01
298.15 K, x1 = 0.5998	22.7
298.15 K, x1 = 0.6519	22.41
298.15 K, x1 = 0.7012	22.08
298.15 K, x1 = 0.7499	21.85
298.15 K, x1 = 0.8003	21.58
298.15 K, x1 = 0.8491	21.42
298.15 K, x1 = 0.9	21.21
298.15 K, x1 = 0.9399	21.09
298.15 K, x1 = 1	20.88
308.15 K, x1 = 0.0488	27.35
308.15 K, x1 = 0.0993	26.53
308.15 K, x1 = 0.1486	25.79
308.15 K, x1 = 0.2003	25.09
308.15 K, x1 = 0.2497	24.51
308.15 K, x1 = 0.3001	23.95
308.15 K, x1 = 0.3499	23.47
308.15 K, x1 = 0.4004	23.02
308.15 K, x1 = 0.4534	22.6
308.15 K, x1 = 0.5016	22.23
308.15 K, x1 = 0.55	21.9
308.15 K, x1 = 0.6017	21.54
308.15 K, x1 = 0.6514	21.24
308.15 K, x1 = 0.7003	20.96
308.15 K, x1 = 0.7498	20.72
308.15 K, x1 = 0.8007	20.46
308.15 K, x1 = 0.8502	20.28
308.15 K, x1 = 0.8989	20.09
308.15 K, x1 = 0.9488	19.95
308.15 K, x1 = 1	19.89
313.15 K, x1 = 0.0498	26.73
313.15 K, x1 = 0.0992	25.91
313.15 K, x1 = 0.1501	25.09
313.15 K, x1 = 0.2003	24.46
313.15 K, x1 = 0.2496	23.86
313.15 K, x1 = 0.3027	23.34
313.15 K, x1 = 0.3505	22.89
313.15 K, x1 = 0.4	22.43
313.15 K, x1 = 0.4501	22.05
313.15 K, x1 = 0.499	21.67
313.15 K, x1 = 0.5463	21.37
313.15 K, x1 = 0.6011	20.95
313.15 K, x1 = 0.6503	20.68
313.15 K, x1 = 0.7002	20.4
313.15 K, x1 = 0.7491	20.14
313.15 K, x1 = 0.7998	19.91
313.15 K, x1 = 0.8507	19.72
313.15 K, x1 = 0.899	19.53
313.15 K, x1 = 0.9497	19.45
313.15 K, x1 = 1	19.42

CCOC(C)OCC [1,1-diethoxyethane]
[2]
Settings	mass density [kg/m3]	surface tension liquid-gas [mN/m]
298.15 K	821.96	20.88
308.15 K	811.48	19.89
313.15 K	806.18	19.42

Cc1cc(C)cc(C)c1 [1,3,5-trimethylbenzene]
[2]
Settings	mass density [kg/m3]	surface tension liquid-gas [mN/m]
298.15 K	861.12	28.05
308.15 K	852.94	27.21
313.15 K	848.82	26.78

Cc1cc(C)cc(C)c1 [1,3,5-trimethylbenzene] + COC(C)(C)OC
[1], x2 = 0
Settings	surface tension liquid-gas [mN/m]
298.15 K	28.05
308.15 K	27.21
313.15 K	26.78
